Results from patent publication US4242327A, “Antibiotic SF-2052 substance and production and use thereof” (Meiji Seika Kaisha, Ltd., priority 1978, dated 1980).
“Also recorded” adds a separate entry of the source. Structures can show the parent of a compound that is named as a salt.

How the values were obtained:
[1] = test system: gram-negative and gram-positive bacteria; experiment: Antibacterial activity, summary of Table 1; type: cell-based; conditions: against both gram-negative and gram-positive bacteria
Method: (§1) Antibacterial activity of SF-2052 substance of this invention (as the sulfate) to inhibit the growth of various bacteria was estimated according to a standard serial dilution method using Heart Infusion agar as the incubation medium. The incubation was made at a temperature of 37° C. for 16 hours.

[2] = Stability; type: physicochemical
[3] = test system: mice; experiment: Acute toxicity, intravenous injection in mice; type: in vivo; conditions: in words
Description: (§2) For determination of acute toxicity of the SF-2052 substance sulfate, this was intravenously injected as its solution in isotonic aqueous solution of sodium chloride into several groups of mice. […] According to this invention, therefore, there is further provided an antibacterial composition comprising as the active ingredient an antibacterially effective amount of at least one of the pharmaceutically acceptable acid-addition salts of the SF-2052 substance, in association with a pharmaceutically acceptable liquid or solid carrier. The content of this active ingredient in this antibacterial composition may be in a range of 5% to 50% by weight of the composition.

[4] = Acute toxicity, intravenous injection in mice; type: in vivo; conditions: mouse, in vivo, solution in isotonic aqueous sodium chloride, estimated
Description: as §2

[5] = test system: Mycobacterium smegmatis 607 Km-R; experiment: Minimum inhibitory concentration, standard serial dilution method on Heart Infusion agar; type: cell-based; conditions: Mycolicibacterium smegmatis, 607KMR, 16 h
Method: as §1

[6] = test system: Escherichia coli K-12-R; experiment: as above; type: cell-based; conditions: 16 h
Method: as §1

[7] = test system: Sarcina lutea; experiment: as above; type: cell-based; conditions: Micrococcus luteus, 37° C., 16 hours
Method: as §1

[8] = test system: Pseudomonas aeruginosa; experiment: as above; type: cell-based; conditions: 37° C., 16 hours
Method: as §1

[9] = test system: Mycobacterium smegmatis 607 Sm-R; experiment: as above; type: cell-based; conditions: Mycolicibacterium smegmatis, 607SMR, 16 h
Method: as §1

[10] = test system: Bacillus subtillis PCI-219; experiment: as above; type: cell-based; conditions: PCI219, 37° C., 16 hours
Method: as §1

[11] = test system: Klebsiella pneumonia; experiment: as above; type: cell-based; conditions: Klebsiella pneumoniae, 37° C., 16 hours
Method: as §1

[12] = test system: Staphylococcus aureus 209P; experiment: as above; type: cell-based; conditions: 37° C., 16 hours
Method: as §1

[13] = test system: Escherichia coli B; experiment: as above; type: cell-based; conditions: 37° C., 16 hours
Method: as §1

[14] = test system: Proteus vulgaris; experiment: as above; type: cell-based; conditions: 37° C., 16 hours
Method: as §1

[15] = test system: Escherichia coli; experiment: as above; type: cell-based; conditions: 37° C., 16 hours
Method: as §1

[16] = Solubility; type: physicochemical; conditions: for solubility in organic solvents: chloroform, ethyl acetate

Row | Compound | antibacterial activity [1] | stability under alkaline pH conditions [2] | acute toxicity [3] | LD50 [4] | MIC [5] | MIC [6] | MIC [7] | MIC [8] | MIC [9] | MIC [10] | MIC [11] | MIC [12] | MIC [13] | MIC [14] | MIC [15] | solubility in organic solvents ([16]; hexane, benzene and ethylether etc.) | solubility in organic solvents ([16]; benzene and ethylether) | solubility in methanol ([16]; methanol) | solubility in water ([16]; water) | stability under acidic to neutral pH conditions ([2]; acidic to neutral pH)
1 | COC1C(O)C(N)C(OC2OC(C(C)N)CCC2N)C(O)C1N(C)C(=O)CNC=N (stereo not drawn) [SF-2052 substance] | high antibacterial activity against both gram-negative and gram-positive bacteria | very instable; also recorded: instable | – | – | – | – | – | – | – | – | – | – | – | – | – | – | – | – | – | –
2 | COC1C(O)C(N)C(OC2OC(C(C)N)CCC2N)C(O)C1N(C)C(=O)CNC=N (stereo not drawn) [SF-2052 substance sulfate] | – | – | substantially non-toxic | 350 mg/kg | 100 µg/mL | 3.12 µg/mL | 0.78 µg/mL | 100 µg/mL | 1.56 µg/mL | 1.56 µg/mL | 3.12 µg/mL | 3.12 µg/mL | 6.25 µg/mL | 1.56 µg/mL | 12.5 µg/mL | – | – | – | – | –
3 | COC1C(O)C(N)C(OC2OC(C(C)N)CCC2N)C(O)C1N(C)C(=O)CNC=N (stereo not drawn) [SF-2052 substance hydrochloride] | – | instable | – | – | – | – | – | – | – | – | – | – | – | – | – | substantially insoluble | insoluble | soluble in methanol | Easily soluble in water; also recorded: readily soluble in water | Relatively stable; also recorded: substantially stable
